{"source": "patent US9738932B2", "about": "“Biomarkers for cardiovascular side-effects induced by cox-2 inhibitory compounds” (FIRALIS SAS, priority 2005, dated 2017)", "origin": "cited, not measured here", "system": "CXCL10 synthesis", "conditions": "by preventing PGE2 production and PKA activation; cited from earlier work"}
{"smiles": "CS(=O)(=O)Nc1ccc([N+](=O)[O-])cc1OC1CCCCC1", "note": "[NS398]", "values": [{"measurement": "effect on CXCL10 synthesis upon INFγ stimulation", "result": "potentiates"}]}
